# Data from patent US11162937B2, “Patient selection method for inflammation” (Purdue Research Foundation, priority 2013, dated 2021).
# Legend:
# CIA mice [1] = assay: Collagen-induced arthritis (CIA) mice: ^99mTc-EC20 radioimaging, arthritis score and paw thickness under anti-inflammatory therapy; details: for disease symptoms (arthritis score, paw swelling) relative to disease control / uptake of ^99mTc-EC20 in the affected appendages relative to disease control: day 3 of therapy; for uptake of ^99mTc-EC20 in the affected appendages relative to disease control: 150 μCi ^99mTc-EC20 i.p., imaged after 4 h
# Method: Collagen-induced arthritis (CIA) was initiated using established methods on 6-7 week old female DBA/1 mice (Jackson Laboratories) maintained on folate-deficient diet (Harlan-Teklad). Briefly, mice were immunized at the base of the tail with 100 μg bovine type II collagen emulsified in complete Freund's adjuvant (Chondrex, Inc., Redmond, Wash., USA). Mice were then boosted 21 days later with a similar injection of 100 μg bovine type II collagen emulsified in incomplete Freund's adjuvant. After four days, onset of arthritis was synchronized in all mice with an intraperitoneal injection of 25 μg lipopolysaccharide (LPS) dissolved in saline. Three days later mice were distributed equally across control and treatment groups (n=5). Healthy mice and disease control mice received daily intraperitoneal injections of 100 μL saline. […] Arthritis scores were assessed every other day by researchers blinded to the various treatment groups, using the following scoring system: 0=normal; 1=mild, but definite redness and swelling of the ankle or wrist, or apparent redness and swelling limited to individual digits, regardless of the number of affected digits; 2=moderate redness and swelling of ankle or wrist; 3=severe redness and swelling of the entire paw including digits; 4=maximally inflamed limb with involvement of multiple joints. A total score for each mouse was calculated by summing the scores for each of the four paws, allowing a maximum possible score of 16 per animal. Paw thickness was measured with calipers every other day starting on the first day of treatment. On day 3 of treatment, mice were anesthetized with isoflurane and imaged with ^99mTc-EC20 as described below. Mice were again imaged and then euthanized by CO2 asphyxiation on day 11 of treatment.
# (§1) ^99mTc-EC20 was prepared as previously described in C. P. Leamon, M. A. Parker, I. R. Vlahov, L. Xu, J. A. Reddy, M. Vetzel, N. Douglas, Synthesis and Biological Evaluation of EC20: A New Folate-Derived, ^99mTc-Based Radiopharmaceutical. Bioconjugate Chem. 13, 1200-1210 (2002), incorporated herein by reference. A preparation method for ^99mTc-EC20 is also described in U.S. Pat. No. 7,128,893, incorporated herein by reference. Briefly, 1 mL of 15 mCi/mL sodium pertechnetate (Cardinal Health) was added to 0.1 mg of EC20 (a gift from Endocyte, Inc.) and heated at 100° C. for 18 min. After diluting with saline, 100 μL ^99mTc-EC20 (150 μCi (˜75 nmol of EC20 per kilogram for CIA, ulcerative colitis and pulmonary fibrosis mice) or 300 μCi (˜150 nmol of EC20 per kilogram for atherosclerosis)) was injected intraperitoneally into the desired mice, and unbound ^99mTc-EC20 was allowed to clear from tissues for 4 h. Mice were then either anesthetized with 3% isoflurane (CIA, atherosclerosis, and pulmonary fibrosis mice) or euthanized (ulcerative colitis mice) prior to image acquisition using a Kodak Image Station operated with Kodak molecular imaging software (version 4.5; Carestream Molecular Imaging). Radioimages were acquired for 2 minutes using a radioisotopic phosphor screen, no illumination source, 4×4 binning, focal plane=5, FOV=160, and f-stop=0. White light images were acquired for 0.175 seconds with white light transillumination source, no binning, focal plane=5, FOV=160, and f-stop=11.
# Mice were induced to develop collagen-induced arthritis (CIA, a well-established model of rheumatoid arthritis) and subjected 28 days later to treatment with methotrexate, dexamethasone or saline (disease control). Three days after initiation of therapy, the mice were injected with 150 μCi of ^99mTc-EC20 and subjected to their first planned radioimage analysis.
# macrophage accumulation = assay: Flow cytometric analysis (F480-PE) of macrophage accumulation in large intestine of ulcerative colitis mice; assay type: in vivo; details: after 4 days of treatment, F480-PE flow cytometry
# Method: Ulcerative colitis was induced as described. Seven week old Balb/c mice (Harlan Laboratories) maintained on a folate-deficient diet were administered 5% dextran sodium sulfate (DSS) in their drinking water. Healthy control mice were maintained on normal water. Mice were divided into treatment groups (n=3 per group). Healthy mice and disease control mice received 100 μL saline daily by oral gavage. Diseased mice were treated daily with cimetidine (100 mg/kg) or sulphasalazine (150 mg/kg) by oral gavage. After 4 days of treatment, mice were euthanized and large intestines were removed. Equal weights of the large intestines were digested and made into single cell suspensions. Cells were included with mouse macrophage marker F480-PE and analyzed by flow cytometry.
# [2] = test system: mice with ulcerative colitis; assay: DSS-induced ulcerative colitis mice: ^99mTc-EC20 radioimaging of colon, clinical score and colon length under therapy; assay type: in vivo; details: for clinical scores compared to disease control mice / colon shortening compared to disease control mice: after 8 days of continuous therapy; for clinical scores or colon lengths relative to saline-treated mice / ^99mTc-EC20 uptake in colon relative to saline-treated mice: day 4 of therapy; for ^99mTc-EC20 uptake in colon relative to saline-treated mice: 150 μCi ^99mTc-EC20; for ^99mTc-EC20 radioimages compared with the earlier time point (day 4): day 8 of therapy
# Method: Ulcerative colitis was induced as previously described in S. Wirtz, C. […] Nat Protoc. 2, 541-546 (2007), incorporated herein by reference. Seven week old Balb/c mice (Harlan Laboratories) maintained on a folate-deficient diet were administered 5% dextran sodium sulfate (DSS) in their drinking water. Mice were divided into treatment groups (n=10 per group). Healthy mice and disease control mice received 100 μL saline daily by oral gavage. Diseased mice were treated daily with cimetidine (100 mg/kg) or sulphasalazine (150 mg/kg) by oral gavage. Healthy mice were maintained on normal water and similarly treated with saline. Disease symptoms were assessed daily and quantitated by adding the scores from each of the following tests: Weight loss: 0=no weight loss, 1=1-5% weight loss, 2=6-10% weight loss, 3=11-15% weight loss, 4=>15% weight loss; Stool appearance: 0=normal, 1=loose feces, 2=diarrhea; Hematochezia (blood in stool): 0=no blood, 1=positive via guaiac paper, 2=visually bloody; Overall appearance: 0=normal, 1=ruffled fur/altered gait, 2=lethargic, moribund. On day 4 of therapy, half of each treatment group (n=5) received an intraperitoneal injection of ^99mTc-EC20. After 4 hours, the injected mice were euthanized and the bladder and kidneys were removed to reduce background radiation associated with ^99mTc-EC20 undergoing excretion. Mice were then imaged to assess uptake of ^99mTc-EC20 in the colon, and the colons were removed and measured with calipers to evaluate colon shortening as a measure of disease severity. On day 8, the remaining mice were injected with ^99mTc-EC20 and analyzed similarly.
# as §1
# Mice (n=10/group) were administered 5% dextran sulfate sodium (DSS) in water to induce ulcerative colitis and then treated daily with cimetidine, sulphasalazine or saline (disease control). Then on day 4, half of the mice (n=5/group) were injected with 150 μCi ^99mTc-EC20 and euthanized in preparation for subsequent imaging of their colons.
# CIA mice [3] = details: prior finding; cited from earlier work
# ApoE−/− mice [4] = assay: Atherosclerosis in ApoE−/− mice on high fat diet: ^99mTc-EC20 radioimaging and aortic histology under therapy; assay type: in vivo
# Method: Five week old male ApoE−/− mice were purchased from Jackson Laboratories and placed on an adjusted calorie diet (42% from fat, Harlan Laboratories). Healthy control mice (C57BL/6) were similarly maintained on normal chow. Mice were divided into therapy groups (n=5). Healthy mice and disease control mice received 100 μL saline daily by oral gavage. Diseased mice were treated daily with valsartan (1 mg/kg), or fluvastatin (3 mg/kg) by oral gavage. After three weeks of treatment, mice were imaged with 300 μCi ^99mTc-EC20. Mice were again imaged with ^99mTc-EC20 after 12 weeks of therapy and then euthanized by CO2 asphyxiation. Aortas were dissected and H&E and oil red O staining was performed.
# (§2) ^99mTc-EC20 was prepared as previously described in C.
# The ability to predict response to therapy might be most useful when applied to treatment of inflammatory/autoimmune diseases that are either intrinsically difficult to monitor or slow to respond to therapeutic intervention. Because atherosclerosis suffers from both disadvantages due to its inaccessible location and slow rate of progression, ^99mTc-EC20 was analyzed to determine if it might be effective in predicting response to therapy in a common murine model of heart disease. […] After 3 weeks of daily treatment, when no morphological symptoms of heart disease could be detected, mice were anesthetized and imaged with ^99mTc-EC20.
# ApoE−/− mice [5] = details: prior finding; cited from earlier work
# [6] = test system: mice with pulmonary fibrosis; assay: Bleomycin-induced pulmonary fibrosis mice: ^99mTc-EC20 radioimaging, BAL cell count, lung hydroxyproline, H&E; assay type: in vivo
# Method: Pulmonary fibrosis was induced in mice as previously described in B. B. Moore, C. M. Hogaboam, Murine models of pulmonary fibrosis. Am J Physiol Lung Cell Mol Physiol. 294, L152-160 (2008), incorporated herein by reference. Briefly, 6 week old female C57BL/6 mice (Harlan Laboratories) maintained on a folate-deficient diet were anaesthetized with isoflurane, and 50 μL of bleomycin (2 U/kg body weight) dissolved in saline was intratracheally instilled into each mouse. Healthy control mice were similarly intratracheally instilled with 50 μL saline. Mice were then separated into treatment groups (n=5). […] Diseased mice were injected every day intraperitoneally with dexamethasone (0.5 mg/kg) or etanercept (300 μg). Mice were imaged with ^99mTc-EC20 after 6 days of treatment and again after 15 days of treatment. Mice were then euthanized by CO2 asphyxiation and bronchoalveolar lavage fluid was collected and cells were counted using a Beckman Coulter Z™ Series COULTER COUNTER® Cell and Particle Counter. The left lung was fixed in formalin and submitted to the Purdue Histology & Phenotyping Laboratory for H&E staining and the right lung was used for analysis of hydroxyproline content using a hydroxyproline assay kit from Sigma-Aldrich (St. Louis, Mo.).
# as §2
# Since pulmonary fibrosis is thought to be primarily driven by M2 macrophages, C57BL/6 mice were induced to develop an acute form of lung fibrosis by intratracheal instillation of bleomycin. Immediately following disease induction, mice were treated daily with intraperitoneal injections of dexamethasone, etanercept, or saline, and then imaged with ^99mTc-EC20 six days later.
molecule,measurement,setting,value
Nc1nc2ncc(CNc3ccc(C(=O)N[C@H](CCC(=O)NC[C@@H]4[NH][99Tc]56(=[O])[S]C[C@@H](C(=O)O)[N]5C(=O)[C@H](CC(=O)O)[N]6C4=O)C(=O)O)cc3)nc2c(=O)[nH]1 [^99mTc-EC20],accumulation of ^99mTc-EC20 in inflamed appendages,"CIA mice [1]; CIA mice not treated with any anti-inflammatory drug, 150 μCi i.p.",exhibited the accumulation of ^99mTc-EC20 in their inflamed appendages
CN/C(=N/CCSCc1nc[nH]c1C)NC#N [cimetidine],macrophage accumulation in large intestine compared to the disease control group,macrophage accumulation,reduced macrophage accumulation
same,clinical scores compared to disease control mice,[2],significantly lower
same,colon shortening compared to disease control mice,[2],reduced colon shortening
same,clinical scores or colon lengths relative to saline-treated mice,[2],no significant difference
same,^99mTc-EC20 uptake in colon relative to saline-treated mice,[2],significantly less
same,^99mTc-EC20 radioimages compared with the earlier time point (day 4),[2],essentially unchanged
CN(Cc1cnc2nc(N)nc(N)c2n1)c1ccc(C(=O)N[C@@H](CCC(=O)O)C(=O)O)cc1 [methotrexate],"disease symptoms (arthritis score, paw swelling) relative to disease control",CIA mice [1]; CIA mice,no reduction
same,uptake of ^99mTc-EC20 in the affected appendages relative to disease control,CIA mice [1]; CIA mice,markedly less
same,"disease symptoms / joint inflammation (arthritis score, paw thickness) relative to disease control","CIA mice [1]; CIA mice, day 11 of therapy",substantially resolved
same,uptake of ^99mTc-EC20 (radioimages),"CIA mice [1]; CIA mice, day 11 of therapy",significantly reduced uptake
COc1ccc2cc([C@H](C)C(=O)O)ccc2c1 [naproxen],efficacy in the CIA model of arthritis in mice (previously found),CIA mice [3],little efficacy
O=C(O)c1cc(/N=N/c2ccc(S(=O)(=O)Nc3ccccn3)cc2)ccc1O [sulphasalazine],macrophage accumulation in large intestine compared to the disease control group,macrophage accumulation,reduced macrophage accumulation
same,clinical scores compared to disease control mice,[2],significantly lower
same,colon shortening compared to disease control mice,[2],reduced colon shortening
same,clinical scores or colon lengths relative to saline-treated mice,[2],no significant difference
same,^99mTc-EC20 uptake in colon relative to saline-treated mice,[2],significantly less
same,^99mTc-EC20 radioimages compared with the earlier time point (day 4),[2],essentially unchanged
CCCCC(=O)N(Cc1ccc(-c2ccccc2-c2nnn[nH]2)cc1)[C@H](C(=O)O)C(C)C [valsartan],^99mTc-EC20 uptake in chest cavities relative to saline-treated mice,ApoE−/− mice [4]; after 3 weeks of daily treatment,significantly less
same,aortic wall thickening relative to saline-treated mice,"ApoE−/− mice [4]; after 12 weeks of daily therapy, H&E",significantly reduced
same,plaque formation in murine models of atherosclerosis (have been shown),ApoE−/− mice [5],reduce plaque formation
etanercept,fibrosis by H&E analysis of the lungs,[6]; day 15 of treatment,reduced fibrosis
same,hydroxyproline contents in resected lung tissues compared to saline-treated controls,[6]; day 15 of treatment,reduced hydroxyproline contents
same,total cell counts in bronchoalveolar lavage fluids compared to saline-treated controls,[6]; day 15 of treatment,decreased total cell counts
same,accumulation of ^99mTc-EC20 compared to saline-treated disease controls,[6]; six days of treatment,decreased accumulation
same,"disease symptoms (arthritis score, paw swelling) relative to disease control",CIA mice [1]; CIA mice,no significant difference
same,uptake of ^99mTc-EC20 in the affected appendages relative to disease control,CIA mice [1]; CIA mice,significantly less uptake
same,"disease symptoms / joint inflammation (arthritis score, paw thickness) relative to disease control","CIA mice [1]; CIA mice, day 11 of therapy",significantly reduced inflammation
